Some test systems named below: NCI-H23; SF-539; A498; MOLT-4; LOX IMVI; CAKI-1; NCI-H522; SK-OV-3; RPMI-8226; SF-268; HCT-116; BT-549; TK-10; HL-60; SK-MEL-28; HCC 2998; MDA-MB-231; HT-29; DU-145.
Holding throughout (test): inhibition of tumour cell growth, NCI panel, 48 h

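Test compounds were applied to cells in 96-well plates for 48 hours at 5 doses. GI50 is the concentration that inhibits growth by half.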 Active and inactive are the calls of the source. Cut-off read from the data, not from the text of the source: active = GI50 up to about 1.1 µM and inactive = higher.

For `NCc1ccccc1.O=C(O)NCc1ccccc1`, the GI50 in the assay with NCI-H23 was 27.5 µM (inactive); in the assay on SF-539 it was 41.1 µM (inactive); with A498, 29 µM (inactive); in the assay with MOLT-4, 18.8 µM (inactive); in the assay on LOX IMVI, 30.3 µM (inactive); with CAKI-1 it was 42.7 µM (inactive). Further, the GI50 in the assay on NCI-H522 was 21.8 µM (inactive); in the assay with SK-OV-3, 37.5 µM (inactive); with RPMI-8226, 12.6 µM (inactive); in the assay with SF-268, 39.7 µM (inactive); in the assay with HCT-116 it was 25.1 µM (inactive); in the assay with BT-549 it was 29.5 µM (inactive). The GI50 is 31.4 µM (inactive) in the assay on TK-10; 26.7 µM (inactive) in the assay with HL-60; 38.2 µM (inactive) with SK-MEL-28; 22.5 µM (inactive) with HCC 2998; 10.3 µM (inactive) in the assay on MDA-MB-231; 27.7 µM (inactive) with HT-29. Further, the GI50 in the assay on DU-145 is 42.8 µM (inactive).

As for `Cc1cc2c(=Cc3ccc(N(C)C)cc3)c3ccccc3n2[n+]1C`, the GI50 was 0.497 µM (active) with NCI-H23; 0.641 µM (active) in the assay with SF-539; 1.87 µM (inactive) in the assay on A498; 0.282 µM (active) in the assay on MOLT-4; 0.458 µM (active) with LOX IMVI; 3.3 µM (inactive) in the assay on CAKI-1. The GI50 in the assay with NCI-H522 was 0.335 µM (active); with SK-OV-3 it was 1.44 µM (inactive); with RPMI-8226 it was 0.107 µM (active); in the assay on SF-268, 0.537 µM (active); in the assay on HCT-116, 0.365 µM (active); in the assay on BT-549, 0.537 µM (active). The GI50 was 1.3 µM (inactive) in the assay with TK-10; 1.39 µM (inactive) with HL-60; 1.2 µM (inactive) with SK-MEL-28; 0.256 µM (active) in the assay on HCC 2998; 0.847 µM (active) with MDA-MB-231; 0.675 µM (active) in the assay on HT-29. In the assay on DU-145, the GI50 was 0.713 µM (active).

Turning to `Cc1ccc(CC(=O)Nc2ccc(NC(=O)CNC(=O)/C=C/c3ccc(-c4ccccc4)cc3)cc2C(=O)c2ccccc2)cc1`, the GI50 with NCI-H23 was 2.06 µM (inactive); with SF-539 it was 2.7 µM (inactive); with A498 it was 0.989 µM (active); with MOLT-4 it was 3.5 µM (inactive); in the assay with LOX IMVI, 3.69 µM (inactive); in the assay on CAKI-1, 4.9 µM (inactive). Moreover, the GI50 was 5.13 µM (inactive) with NCI-H522; 10.7 µM (inactive) in the assay on SK-OV-3; 10.4 µM (inactive) with RPMI-8226; 2.45 µM (inactive) with SF-268; 1.36 µM (inactive) in the assay on HCT-116; 10.9 µM (inactive) in the assay on BT-549. The GI50 is 2.08 µM (inactive) in the assay with TK-10; 7.45 µM (inactive) in the assay on HL-60; 11.7 µM (inactive) in the assay with SK-MEL-28; 1.67 µM (inactive) in the assay on HCC 2998; 2.62 µM (inactive) in the assay on MDA-MB-231; 1.58 µM (inactive) in the assay on HT-29. Moreover, the GI50 with DU-145 was 2.49 µM (inactive).

On to `CCN(CC)CCNc1nc(N)c(C#N)c(C#N)c1C#N`, for which the GI50 in the assay with NCI-H23, in the assay with SF-539, in the assay with A498, in the assay on MOLT-4, in the assay with LOX IMVI and in the assay on CAKI-1 was > 10 µM (inactive) in each case. Also, the GI50 with NCI-H522, in the assay with SK-OV-3, in the assay with RPMI-8226, with SF-268, in the assay on HCT-116 and in the assay on BT-549 was > 10 µM (inactive) in each case. The GI50 in the assay with TK-10, with HL-60, in the assay with SK-MEL-28, in the assay with HCC 2998, in the assay with MDA-MB-231 and in the assay with HT-29 was > 10 µM (inactive) each time. For the same compound, the GI50 with DU-145 is > 10 µM (inactive).

With `Nc1nc(Cl)cc(NCC2(CO)CC(CCCCc3ccccc3)C2)n1` (centres undefined), the GI50 was 21.8 µM (inactive) in the assay with NCI-H23; > 100 µM (inactive) in the assay on SF-539; 18.1 µM (inactive) in the assay on A498; 3.36 µM (inactive) with MOLT-4; 5.73 µM (inactive) in the assay with LOX IMVI; 82.8 µM (inactive) in the assay with CAKI-1. The GI50 is 66.7 µM (inactive) in the assay on NCI-H522; > 100 µM (inactive) with SK-OV-3; 10.9 µM (inactive) in the assay with RPMI-8226; > 100 µM (inactive) in the assay on SF-268; 29 µM (inactive) in the assay on HCT-116; > 100 µM (inactive) in the assay on BT-549. Further, the GI50 was > 100 µM (inactive) with TK-10; 6.55 µM (inactive) in the assay with HL-60; > 100 µM (inactive) in the assay on SK-MEL-28; 37.7 µM (inactive) in the assay with HCC 2998; 30.6 µM (inactive) in the assay with MDA-MB-231; 13.7 µM (inactive) in the assay on HT-29. For the same compound, in the assay on DU-145, the GI50 was > 100 µM (inactive).

Take `Cc1cc(/N=C/c2ccc(Cl)cc2)n(-c2ccccc2)n1`: the GI50 in the assay with NCI-H23 was 42 µM (inactive); in the assay with SF-539, > 100 µM (inactive); with A498 it was 21.9 µM (inactive); in the assay with MOLT-4, 32.2 µM (inactive); with LOX IMVI, 54.2 µM (inactive); in the assay with CAKI-1 it was 39 µM (inactive). The GI50 in the assay on NCI-H522 was 23.1 µM (inactive); in the assay on SK-OV-3 it was 67.9 µM (inactive); in the assay on RPMI-8226, 24.6 µM (inactive); with SF-268, 69.3 µM (inactive); with HCT-116, 26.2 µM (inactive); in the assay on BT-549 it was 31.8 µM (inactive). The GI50 in the assay with TK-10 is 40.3 µM (inactive); with HL-60, 26 µM (inactive); with SK-MEL-28 it was 44.6 µM (inactive); with HCC 2998, 24.9 µM (inactive); with MDA-MB-231, > 100 µM (inactive); with HT-29 it was 23.4 µM (inactive). For the same compound, in the assay on DU-145, the GI50 was 50.9 µM (inactive).

On to `CCCCNC1CCC2(SCCS2)c2[nH]c3ccccc3c21` (centres undefined), for which the GI50 in the assay on NCI-H23 is 32 µM (inactive); with SF-539 it was 13.7 µM (inactive); with A498, 20.8 µM (inactive); in the assay with MOLT-4, 3.97 µM (inactive); in the assay with LOX IMVI, 2.64 µM (inactive); in the assay with CAKI-1, 2.04 µM (inactive). Also, the GI50 was 8.61 µM (inactive) with NCI-H522; 49.8 µM (inactive) in the assay with SK-OV-3; 1.77 µM (inactive) in the assay with RPMI-8226; 19.9 µM (inactive) with SF-268; 7.4 µM (inactive) with HCT-116; 23.4 µM (inactive) with BT-549. Moreover, the GI50 was 13.2 µM (inactive) in the assay with TK-10; 3.16 µM (inactive) with HL-60; 34.3 µM (inactive) in the assay on SK-MEL-28; 18.9 µM (inactive) with HCC 2998; 16.6 µM (inactive) with MDA-MB-231; 25.2 µM (inactive) in the assay on HT-29. Moreover, the GI50 in the assay with DU-145 was 19.1 µM (inactive).

In the case of `O=C(C1OC1c1cccc([N+](=O)[O-])c1)C12CC3CC(CC(C3)C1)C2` (centres undefined), the GI50 with NCI-H23 was 5.74 µM (inactive); in the assay with SF-539, 8.79 µM (inactive); in the assay on A498, 5.13 µM (inactive); in the assay with MOLT-4 it was 2.82 µM (inactive); in the assay on LOX IMVI, 1.72 µM (inactive); in the assay on CAKI-1, 8.83 µM (inactive). Moreover, the GI50 with NCI-H522 is 3.81 µM (inactive); in the assay on SK-OV-3 it was 16.9 µM (inactive); with RPMI-8226, 2.13 µM (inactive); in the assay on SF-268 it was 2.63 µM (inactive); in the assay with HCT-116, 2.14 µM (inactive); in the assay with BT-549, 3.09 µM (inactive). In addition, the GI50 was 18.1 µM (inactive) in the assay on TK-10; 2.43 µM (inactive) with HL-60; 12.3 µM (inactive) in the assay on SK-MEL-28; 6.73 µM (inactive) in the assay with HCC 2998; 4.83 µM (inactive) with MDA-MB-231; 3.39 µM (inactive) in the assay on HT-29. Also, the GI50 in the assay with DU-145 was 13.8 µM (inactive).

As for `CCOC(=O)NC(Nc1ccc([N+](=O)[O-])cc1)(C(F)(F)F)C(F)(F)F`, the GI50 in the assay with NCI-H23 was > 100 µM (inactive); in the assay on SF-539, > 100 µM (inactive); in the assay on A498, 91.2 µM (inactive); in the assay with MOLT-4 it was 54.2 µM (inactive); in the assay with LOX IMVI, 75.3 µM (inactive); in the assay on CAKI-1, 82.4 µM (inactive). The GI50 with NCI-H522 was 25.1 µM (inactive); in the assay with SK-OV-3 it was 56.5 µM (inactive); with RPMI-8226, 99.3 µM (inactive); in the assay on SF-268 it was > 100 µM (inactive); in the assay with HCT-116 it was 59.8 µM (inactive); in the assay on BT-549 it was 96.2 µM (inactive). Besides, the GI50 in the assay on TK-10 was 69.8 µM (inactive); in the assay on HL-60 it was 54.1 µM (inactive); in the assay with SK-MEL-28 it was > 100 µM (inactive); in the assay with HCC 2998, > 100 µM (inactive); with MDA-MB-231, 94.2 µM (inactive); in the assay on HT-29, > 100 µM (inactive). Moreover, the GI50 in the assay with DU-145 was > 100 µM (inactive).

Regarding `Oc1cc(Br)cc2cc(Cl)cnc12`, the GI50 with NCI-H23 is 5.47 µM (inactive); in the assay with SF-539, 3.19 µM (inactive); with A498 it was 8.26 µM (inactive); in the assay on MOLT-4, 1.55 µM (inactive); with LOX IMVI, 0.635 µM (active); in the assay on CAKI-1 it was 7.55 µM (inactive). Moreover, the GI50 in the assay on NCI-H522 is 2.35 µM (inactive); in the assay on SK-OV-3, 30.2 µM (inactive); in the assay on RPMI-8226 it was 2.54 µM (inactive); with SF-268, 0.893 µM (active); with HCT-116, 1.66 µM (inactive); in the assay with BT-549, 2.44 µM (inactive). For the same compound, the GI50 is 28.5 µM (inactive) in the assay on TK-10; 0.463 µM (active) in the assay on HL-60; 3.29 µM (inactive) with SK-MEL-28; 17.8 µM (inactive) in the assay on HCC 2998; 20.8 µM (inactive) in the assay on MDA-MB-231; 11 µM (inactive) in the assay on HT-29. Further, the GI50 in the assay with DU-145 is 4.56 µM (inactive).

For `C=C1C(=O)O[C@@H]2C[C@@]3(C)CCC[C@H](C)C3=C[C@H]12` [HELENINE], the GI50 in the assay with NCI-H23 was 4.94 µM (inactive); in the assay with SF-539, 10.6 µM (inactive); in the assay on A498, 12.4 µM (inactive); in the assay on MOLT-4, 1.62 µM (inactive); in the assay with LOX IMVI, 10.5 µM (inactive); with CAKI-1, 5.33 µM (inactive). Moreover, the GI50 in the assay with NCI-H522 is 3.18 µM (inactive); with SK-OV-3, 22 µM (inactive); in the assay with RPMI-8226, 1.76 µM (inactive); in the assay on SF-268, 12.6 µM (inactive); with HCT-116 it was 4.45 µM (inactive); in the assay with BT-549, 3.62 µM (inactive). For the same compound, the GI50 in the assay with TK-10 was 2.77 µM (inactive); in the assay with HL-60, 1.98 µM (inactive); in the assay with SK-MEL-28 it was 8 µM (inactive); in the assay on HCC 2998 it was 15.7 µM (inactive); with MDA-MB-231 it was 14.2 µM (inactive); with HT-29 it was 4.29 µM (inactive). In the assay with DU-145, the GI50 is 12 µM (inactive).

The values above are taken from ChEMBL document CHEMBL1201862, “PubChem BioAssay data set” (2004).
